Data taken from US10457649B2, “Polymorphs of a mPGES-1 inhibiting triazolone compound” (Glenmark Pharmaceuticals S.A., priority 2015, dated 2019).

Test: Stability studies of compound of formula II on storage; degradation products estimated by HPLC
Assay type: physicochemical
From the text: Apparatus: A High Performance Liquid Chromatograph equipped with quaternary gradient pumps, variable wavelength UV detector attached with data recorder and Integrator software or equivalent.
Column: Zorbax Eclipse XDB C-8, 150 mm×4.6 mm, 5μ or equivalent
Mobile phase: A: Buffer B: Methanol (Gradient Program)
Buffer: Water, pH adjusted to 2.2 with trifluoroacetic acid solution. Filter through 0.45μ filter paper and degas.
Diluent: Water: Methanol (20:80 v/v)
Detection wavelength: UV 270 nm
Column temperature: 25° C.
25 mg of the compound was weighed and transferred into a 50 mL volumetric flask. Methanol (5 ml) was added and it was sonicated to dissolve. The diluent was added to make up the solution to the mark of the flask.
The equal volumes of blank (diluent) and test solution were separately injected into the High Performance liquid chromatography. The responses were recorded eliminating the peaks due to blank and the chromatographic purity by area was calculated by normalization method.
The compound of formula II was stored under conditions as shown in below table and a total amount of degradation products (related substances) as well as single maximum impurity formed during storage was estimated by HPLC. The material was packed in inner clear polythene bag under nitrogen lined with black polythene bag, covered with triple laminated aluminium bag placed in HDPE drum and subjected to the conditions mentioned in the table 5.
The result of stability studies of compound of formula (II) carried out under the conditions mentioned in the table 5 is presented in tables 6 and 7.

[1] = storage condition 1: 25 ± 2° C., 60 ± 5% RH, storage period 0 months
[2] = storage condition 1: 25 ± 2° C., 60 ± 5% RH, storage period 3 months
[3] = storage condition 1: 25 ± 2° C., 60 ± 5% RH, storage period 6 months
[4] = storage condition 2: 40 ± 2° C., 75 ± 5% RH, storage period 0 months
[5] = storage condition 2: 40 ± 2° C., 75 ± 5% RH, storage period 1 month
[6] = storage condition 2: 40 ± 2° C., 75 ± 5% RH, storage period 2 months
[7] = storage condition 2: 40 ± 2° C., 75 ± 5% RH, storage period 3 months
[8] = storage condition 2: 40 ± 2° C., 75 ± 5% RH, storage period 6 months

Related substances [1]: 0.13% | Single max. impurity [1]: 0.13% | Related substances [2]: 0.14% | Single max. impurity [2]: 0.14% | Related substances [3]: 0.14% | Single max. impurity [3]: 0.14% | Related substances [4]: 0.13% | Single max. impurity [4]: 0.13% | Related substances [5]: 0.14% | Single max. impurity [5]: 0.14% | Related substances [6]: 0.13% | Single max. impurity [6]: 0.13% | Related substances [7]: 0.14% | Single max. impurity [7]: 0.14% | Related substances [8]: 0.13% | Single max. impurity [8]: 0.13%
Compound: CC(C)(C)C(=O)NCc1ccc(Cl)c(-c2nn(-c3ccc(C(F)(F)F)cc3)c(=O)[nH]2)c1 [compound of formula II, N-(4-chloro-3-(5-oxo-1-(4-(trifluoromethyl)phenyl)-4,5-dihydro-1H-1,2,4-triazol-3-yl)benzyl)pivalamide]
